{"source": "paper PMC12270677", "about": "“Topological isomers of a potent wound healing peptide: Structural insights and implications for bioactivity” (The Journal of Biological Chemistry, 2025)", "key": {"[1]": {"tested_on": "LX-2 human hepatic stellate cell line", "experiment": "Real-time cell proliferation assay (xCELLigence)", "settings": "for EC50: read-out: EC50, LX-2 cell proliferation, xCELLigence SP, 3000 cells per well, serum-free medium, single treatment, proliferation measured 4 days after treatment, relative to scrambled peptide control GSP, variable slope dose-response fit, six replicates per treatment; for Proliferative response of LX-2 cells at concentrations up to 400 nM: 4 days after single treatment, relative to GSP, ANOVA against peptide control", "procedure": "Real-time cell proliferation assays using xCELLigence technology were performed to assess the effects of GRN-P4A isomers and the mutant peptide GRN-L1m on the human hepatic stellate cell line LX-2.\nFigure 7 Cell proliferation assay of GRN-P4A isomers and GRN-L1m on human hepatic stellate cells (LX-2). The five peptides were tested across a concentration range of 0.16 nM to 800 nM using the LX-2 human hepatic stellate cell line. Two negative controls were included: serum-free media (SFM) and a scrambled GRN-P4A peptide (GSP). The graphs display variable slope dose–response curves fitted to proliferation data measured 4 days after a single treatment application. […] Proliferation is expressed relative to the scrambled peptide control (GSP) and presented as mean ± SEM. Statistical significance was assessed using one-way ANOVA against the peptide control. ∗ = […], ∗∗ = p < 0.01, ∗∗∗ = p < 0.001, ∗∗∗∗ = p < 0.0001.\nThe LX-2 human hepatic stellate cell line was generously donated by Dr Lionel Hebbard. Cells were cultured and maintained in Dulbecco’s Modified Eagle Medium/Nutrient Mixture F-12 (DMEM/F12) with GlutaMAX (Gibco) with 2 × antibiotic/antimycotic solution (penicillin, streptomycin, and amphotericin B), supplemented with 2% fetal bovine serum (FBS) (Gibco), at 37°C and 5% CO2. For the negative control, cells were treated with scrambled granulin peptide (GSP) or serum free media diluent. Dried peptide powder was resuspended in Milli-Q water to 170 μM and diluted in serum-free DMEM/F12 media.\nCell proliferation was monitored in real time using the xCELLigence SP system (ACEA Biosciences), following previously established method ([37]). LX2 cells were seeded into a 96-well xCELLigence E-plate (Agilent) at a density of 3000 cells per well in 150 μl of medium, and placed in the xCELLigence system at 37°C with 5% CO2, for overnight monitoring ([38]). Treatments were applied in serum-free medium at 20 μl per well, achieving final concentrations of […] to 800 nM, with six replicates per treatment. The cell index (CI) was continuously monitored using the Real-Time Cell Analysis (RTCA) software (Agilent), with measurements taken every hour over 6 days following treatment. Cell indices were normalized to the baseline values prior to treatment, and cell proliferation was expressed as the relative number of cells compared to the negative control GRN-scrambled peptide (GSP). Statistical analysis was conducted using two-way ANOVA test with Holm-Sidak’s correction comparing controls to treatments at each timepoint with GraphPad Prism 9.3.1 (www.graphpad.com)."}, "[2]": {"experiment": "NMR at three temperatures to assess interconversion of isomer 1 into isomer 2", "assay_type": "physicochemical", "settings": "αH secondary shifts at 283 K, 290 K and 310 K, 0.2 mM peptide in water/D2O", "procedure": "NMR spectra of isomer 1 were recorded at the three different temperatures of 290 K (standard conditions), 310 K (physiological temperature), and 283 K (lower temperature) to assess potential interconversion into isomer 2, the major oxidation product.\nLyophilized peptides were rehydrated in a mixture of 500 μl water and 50 μl D2O, to obtain a final concentration of 0.2 mM. NMR spectra were recorded at temperatures of 283, 290 and 310 K using a 600 MHz Bruker Avance III spectrometer (Bruker) equipped with a cryoprobe. Chemical shifts were referenced to external DSS (sodium trimethylsilylpropanesulfonate). Two-dimensional spectra included [^1H,^1H]-TOCSY, [^1H,^1H]-H/D exchange TOCSY, [^1H,^1H]-NOESY, [^1H,^1H]-COSY, [^1H,^1H]-exclusive correlation spectroscopy, [^1H,^13 C]-HSQC, and [^1H,^15 N]-HSQC with TOCSY and NOESY mixing times of 80 ms and 200 ms, respectively. NMR data processing and analysis were performed using TopSpin (Bruker), and peak assignments were made using CcpNMR Analysis (Collaborative Computing Project for NMR) based on the method outlined by Wuthrich ([28], [29]). Backbone torsion-angle restraints for phi and psi were predicted from ^1H and ^13C chemical-shift analyses, were predicted using TALOS-N ([30]). […] The αH secondary shifts were determined by subtracting random coil ^1H NMR chemical shifts ([19]) from the experimental αH chemical shifts. […]"}, "[3]": {"tested_on": "wound healing in a mouse model", "settings": "compared with Regranex; cited from earlier work", "text": "This study highlights the structural complexity and bioactivity of isomers in disulfide-rich peptides, with a focus on GRN-P4A. GRN-P4A is a mutant peptide derived from Ov-GRN12 − 35_3s, a truncated form of the liver fluke granulin Ov-GRN-1, known for its potent wound healing properties."}}, "note": "Positions of bridges follow the written chain, without caps; N, C: chain ends. Residues, ends and D or L forms follow the SMILES beside them. No end group written: not given here."}
{"compound": "CC(C)C[C@@H]1NC(=O)CNC(=O)[C@H](CCCNC(=N)N)NC(=O)[C@@H]2CSSC[C@@H](C(=O)O)NC(=O)[C@H](CSSC[C@@H]3NC(=O)[C@H]([C@@H](C)O)NC(=O)[C@H](Cc4ccc(O)cc4)NC(=O)[C@H](C(C)C)NC(=O)[C@H](C)NC(=O)[C@H](CC(=O)O)NC(=O)[C@@H]4CCCN4C(=O)[C@@H](N)CSSC[C@H](NC(=O)[C@H]([C@@H](C)O)NC(=O)[C@H](CCC(N)=O)NC(=O)CNC(=O)[C@@H]4CCCN4C(=O)[C@H](CCCNC(=N)N)NC3=O)C(=O)N2)NC(=O)CNC(=O)[C@H](Cc2ccc(O)cc2)NC(=O)CNC(=O)[C@H](Cc2c[nH]cn2)NC1=O", "note": "(single isomer, unassigned) [GRN-P4A isomer 2]", "values": [{"measurement": "EC50", "setting": "[1]; LX-2 cells", "result": 0.093, "unit": "µM"}]}
{"compound": "CC(C)C[C@@H]1NC(=O)CNC(=O)[C@H](CCCNC(=N)N)NC(=O)[C@@H]2CSSC[C@@H](C(=O)O)NC(=O)[C@H](CSSC[C@@H]3NC(=O)[C@H]([C@@H](C)O)NC(=O)[C@H](Cc4ccc(O)cc4)NC(=O)[C@H](C(C)C)NC(=O)[C@H](C)NC(=O)[C@H](CC(=O)O)NC(=O)CNC(=O)[C@@H](N)CSSC[C@H](NC(=O)[C@H]([C@@H](C)O)NC(=O)[C@H](CCC(N)=O)NC(=O)CNC(=O)[C@@H]4CCCN4C(=O)[C@H](CCCNC(=N)N)NC3=O)C(=O)N2)NC(=O)CNC(=O)[C@H](Cc2ccc(O)cc2)NC(=O)CNC(=O)[C@H](Cc2c[nH]cn2)NC1=O", "note": "[GRN-L1m] (H-CGDAVYTCRPGQTCCRGLHGYGCC-OH; disulfide 1-14, 8-23, 15-24)", "values": [{"measurement": "EC50", "setting": "[1]; LX-2 cells", "result": 0.318, "unit": "µM"}]}
{"compound": "CPDAVYTCRPGQTCCRGLHGYGCC (also: bicyclic or more (positions not given here)) [GRN-P4A isomer 1, Fully oxidized GRN-P4A topological isomer eluting first in RP-HPLC, mini-granulin fold]", "values": [{"measurement": "Proliferative response of LX-2 cells at concentrations up to 400 nM", "setting": "[1]; xCELLigence", "result": "did not produce a statistically significant proliferative response"}, {"measurement": "Proliferative response of LX-2 cells at concentrations up to 400 nM", "setting": "[1]; xCELLigence, listed as isomer 1", "result": "did not produce a statistically significant response"}, {"measurement": "Conformational stability / interconversion into isomer 2 with temperature", "setting": "[2]; listed as Isomer 1", "result": "retained its structure across all tested temperatures"}, {"measurement": "Conformational stability / interconversion into isomer 2 with temperature", "setting": "[2]; listed as isomer 1", "result": "no evidence of interconversion"}]}
{"compound": "CPDAVYTCRPGQTCCRGLHGYGCC (also: bicyclic or more (positions not given here)) [GRN-P4A isomer 3]", "values": [{"measurement": "Cytotoxicity", "setting": "[1]; LX-2 cells, xCELLigence, statement in the Discussion, likely due to peptide aggregation", "result": "displayed cytotoxicity"}, {"measurement": "Proliferative response of LX-2 cells at concentrations up to 400 nM", "setting": "[1]; xCELLigence, listed as isomer 3", "result": "did not produce a statistically significant response"}]}
{"compound": "CPDAVYTCRPGQTCCRGLHGYGCC (also: bicyclic or more (positions not given here)) [GRN-P4A isomer 4]", "values": [{"measurement": "Cell proliferation at higher concentrations", "setting": "[1]; LX-2 cells, xCELLigence, statement in the Discussion, tested up to 800 nM", "result": "promoted cell proliferation at higher concentrations"}, {"measurement": "Proliferative response of LX-2 cells at concentrations up to 400 nM", "setting": "[1]; xCELLigence, listed as isomer 4", "result": "did not produce a statistically significant response"}]}
{"compound": "CPDAVYTCRPGQTCCRGLHGYGCC (also: bicyclic or more (positions not given here)) [GRN-P4A, 24-residue peptide containing three disulfide bonds engineered from liver-fluke granulin Ov-GRN-1]", "values": [{"measurement": "Wound healing activity in a mouse model", "setting": "[3]", "result": "enhanced wound healing activity"}]}
